# Tested on: 966289-007-R4-J1-PDC complex spheroid viability
# Assay: Anticancer human tumor 966289-007-R4-J1-PDC patient-derived pancreatic adenocarcinoma cell line growth inhibition [RAS]
# Details: for IC50: curve of first compound; for viability, T/C: stronger effect = lower value
# From the text: RAS pathway inhibitors in Combinations in Complex Spheroids
# A high-throughput screen of multi-cell type tumor spheroids was designed to identify active combinations of RAS pathway inhibitors and targeted small molecules. Complex spheroids include a stromal component modeled by human endothelial cells (HUVEC) and fibroblasts modeled by human mesenchymal stem cells (MSCs). The concentration ranges selected for each drug and investigational agent were based upon clinically achievable concentrations if the clinical Cmax of the agent was known.
# Compounds. The drugs and investigational agents: abemaciclib (NSC768073), cobimetinib (NSC768068), divarasib (GDC6063, NSC841802), docetaxel (NSC628503), GDC-1971 (RLY-1971, NSC841576), gemcitabine (NSC613327), inavolisib (NSC800729), ipatasertib (NSC767898), KB-0742 (NSC834161), MRTX-1133 (NSC836407), osimertinib (NSC779217), RMC-4630 (NSC839698), RMC-6236 (NSC851965), RMC-6291 (NSC852671), Ro-3306 (NSC812927), sapanisertib (NSC764658), SN-38 (NSC673596), staurosporine (NSC755774), SY5609 (NSC837396), and tovorafenib (DAY101, NSC766906), were obtained from the National Cancer Institute (NCI) Developmental Therapeutics Program Chemical Repository. The FDA-approved anticancer drug set is available from the NCI Developmental Therapeutics Program. […] The stock solutions were prepared in dimethyl sulfoxide (DMSO, Sigma-Aldrich, St. Louis, MO, cat. D2650) at 800-fold the tested concentration and stored at -70 degrees C prior to their use. All drugs and investigational agents were tested over a range starting from a high concentration at or near the clinical Cmax and decreasing in half-log increments. If the clinical Cmax for an agent had not been determined, the highest concentration tested was 10 microM.
# Cell Culture. All cells were maintained in an incubator at 37 degrees C and 5% CO2 with 95% humidity. The PDC lines were cultured according to standard operating procedures established by the NCI PDMR. All PDCs were thawed and cultured in Matrigel-coated flasks prepared with a working solution of 1X Ham's F-12 nutrient mix, without supplementation (Invitrogen, Waltham, MA, cat. 11765054), 100 U/mL penicillin-streptomycin (Invitrogen, cat. 15140122), and 2.5% Matrigel (Corning Inc., Corning, NY, cat. 354248) for the first three passages. The 362531-283-R-J2-PDC and 782815-120-R-J1-PDC lines were cultured in 6C/Colon 1B media, which includes advanced DMEM/F-12 (Thermo Fisher Scientific, cat. 12634028), 10 mM HEPES (Thermo Fisher Scientific, cat. 15630080), 1X GlutaMAX supplement (Thermo Fisher Scientific, cat. 35050061), 0.1 mg/mL primocin (InvivoGen, San Diego, CA, cat. ant-pm-2), 10% defined fetal bovine serum, heat inactivated (HyClone Laboratories Inc., Logan, UT, cat. SH30070.03HI), 50% L-WRN conditioned media (ATCC, cat. CRL-3276), 1.25 mM N-Acetyl-L-cysteine (Sigma-Aldrich, cat. A9165), 10 mM nicotinamide (Sigma-Aldrich, cat. N0636), 1X B-27 supplement (Thermo Fisher Scientific, cat. 17504044), 1X N-2 supplement (Thermo Fisher Scientific, cat. 17502048), 50 ng/mL human EGF (Thermo Fisher Scientific, cat. PHG0311), and 10 microM Y-27632 dihydrochloride (Tocris Bioscience, cat. 1254). The K12877-001-R-J1-PDC line was cultured in 6I media, which includes all 6C/Colon 1B media plus 10 ng/mL human FGF-10 (PeproTech, cat. 100-26), 1 ng/mL human FGF-2 (PeproTech, cat. 100-18B), 1 µM prostaglandin E2 (Tocris Bioscience, cat. 2296), […] hydrocortisone (Sigma-Aldrich, cat. H4001), and […] bovine insulin (Sigma-Aldrich, cat. I6634). The K86415-001-R-J1-PDC line was cultured in 6D media, which includes all 6C/Colon 1B media components minus the L-WRN conditioned media. The 485176-168-R4-J1-PDC was cultured in PANC media, which includes all 6C/Colon 1B media plus 100 ng/mL human FGF-10 (PeproTech, cat. 100-26), 500 nM SB-431542 (Selleckchem, cat. S1067), and 10 nM gastrin (Tocris Bioscience, cat. 3006). […]
# [1] = second compound 0.000949 µM, first compound 0.0316 µM
# [2] = second compound 0.000949 µM, first compound 0.1 µM
# [3] = second compound 0.000949 µM, first compound 0.316 µM
# [4] = second compound 0.000949 µM, first compound 1 µM
# [5] = second compound 0.003 µM, first compound 0.0316 µM
# [6] = second compound 0.003 µM, first compound 0.1 µM
# [7] = second compound 0.003 µM, first compound 0.316 µM
# [8] = second compound 0.003 µM, first compound 1 µM
# [9] = second compound 0.00949 µM, first compound 0.0316 µM
# [10] = second compound 0.00949 µM, first compound 0.1 µM
# [11] = second compound 0.00949 µM, first compound 0.316 µM
# [12] = second compound 0.00949 µM, first compound 1 µM
# [13] = second compound 0.03 µM, first compound 0.0316 µM
# [14] = second compound 0.03 µM, first compound 0.1 µM
# [15] = second compound 0.03 µM, first compound 0.316 µM
# [16] = second compound 0.03 µM, first compound 1 µM
# [17] = second compound 0.0949 µM, first compound 0.0316 µM
# [18] = second compound 0.0949 µM, first compound 0.1 µM
# [19] = second compound 0.0949 µM, first compound 0.316 µM
# [20] = second compound 0.0949 µM, first compound 1 µM
# [21] = second compound 0.3 µM, first compound 0.0316 µM
# [22] = second compound 0.3 µM, first compound 0.1 µM
# [23] = second compound 0.3 µM, first compound 0.316 µM
# [24] = second compound 0.3 µM, first compound 1 µM
# 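Also: spheroids exposed to agents for one week before readout.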
# 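For viability, T/C in this document: percent viability relative to DMSO vehicle control wells as 100%.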
smiles,measurement,setting,value
C[C@@H](NC(=O)c1ncnc(N)c1Cl)c1ncc(C(=O)Nc2cc(C(F)(F)F)c(Cl)cn2)s1 + CCn1c(-c2cc(N3CCN(C)CC3)cnc2C(C)OC)c2c3cc(ccc31)-c1csc(n1)CC(NC(=O)C1CC1C)C(=O)N1CCCC(N1)C(=O)OCC(C)(C)C2,IC50,second compound 0.000949 µM,> 10 µM
same,IC50,second compound 0.003 µM,> 10 µM
same,IC50,second compound 0.00949 µM,> 10 µM
same,IC50,second compound 0.03 µM,> 10 µM
same,IC50,second compound 0.0949 µM,> 10 µM
same,IC50,second compound 0.3 µM,> 10 µM
same,"viability, T/C",[1],125%
same,"viability, T/C",[2],120%
same,"viability, T/C",[3],91.1%
same,"viability, T/C",[4],73%
same,"viability, T/C","second compound 0.000949 µM, first compound 3.16 µM",73.8%
same,"viability, T/C","second compound 0.000949 µM, first compound 10 µM",103%
same,"viability, T/C",[5],94.6%
same,"viability, T/C",[6],113%
same,"viability, T/C",[7],102%
same,"viability, T/C",[8],85.1%
same,"viability, T/C","second compound 0.003 µM, first compound 3.16 µM",97%
same,"viability, T/C","second compound 0.003 µM, first compound 10 µM",84.2%
same,"viability, T/C",[9],97.3%
same,"viability, T/C",[10],116%
same,"viability, T/C",[11],95.3%
same,"viability, T/C",[12],69%
same,"viability, T/C","second compound 0.00949 µM, first compound 3.16 µM",103%
same,"viability, T/C","second compound 0.00949 µM, first compound 10 µM",110%
same,"viability, T/C",[13],79.2%
same,"viability, T/C",[14],77.2%
same,"viability, T/C",[15],118%
same,"viability, T/C",[16],123%
same,"viability, T/C","second compound 0.03 µM, first compound 3.16 µM",117%
same,"viability, T/C","second compound 0.03 µM, first compound 10 µM",82%
same,"viability, T/C",[17],76.6%
same,"viability, T/C",[18],88.3%
same,"viability, T/C",[19],119%
same,"viability, T/C",[20],105%
same,"viability, T/C","second compound 0.0949 µM, first compound 3.16 µM",111%
same,"viability, T/C","second compound 0.0949 µM, first compound 10 µM",150%
same,"viability, T/C",[21],60.5%
same,"viability, T/C",[22],101%
same,"viability, T/C",[23],130%
same,"viability, T/C",[24],141%
same,"viability, T/C","second compound 0.3 µM, first compound 3.16 µM",116%
same,"viability, T/C","second compound 0.3 µM, first compound 10 µM",107%
O=C(c1ccc(F)c(F)c1Nc1ccc(I)cc1F)N1CC(O)([C@@H]2CCCCN2)C1 + CCn1c(-c2cccnc2C(C)OC)c2c3cc(ccc31)N1CCOC(CC(NC(=O)C(C(C)C)N(C)C(=O)C3(F)CCN(C(=O)C#CC(C)(C)N(C)C)CC3)C(=O)N3CCCC(N3)C(=O)OCC(C)(C)C2)C1,IC50,second compound 0.000949 µM,> 1 µM
same,IC50,second compound 0.003 µM,> 1 µM
same,IC50,second compound 0.00949 µM,0.94 µM
same,IC50,second compound 0.03 µM,0.848 µM
same,IC50,second compound 0.0949 µM,> 1 µM
same,IC50,second compound 0.3 µM,0.661 µM
same,"viability, T/C","second compound 0.000949 µM, first compound 0.00316 µM",95.6%
same,"viability, T/C","second compound 0.000949 µM, first compound 0.01 µM",94.9%
same,"viability, T/C",[1],102%
same,"viability, T/C",[2],84.4%
same,"viability, T/C",[3],78.9%
same,"viability, T/C",[4],60.3%
same,"viability, T/C","second compound 0.003 µM, first compound 0.00316 µM",76.5%
same,"viability, T/C","second compound 0.003 µM, first compound 0.01 µM",82.9%
same,"viability, T/C",[5],99.5%
same,"viability, T/C",[6],79.5%
same,"viability, T/C",[7],86.1%
same,"viability, T/C",[8],59.4%
same,"viability, T/C","second compound 0.00949 µM, first compound 0.00316 µM",79.6%
same,"viability, T/C","second compound 0.00949 µM, first compound 0.01 µM",84.6%
same,"viability, T/C",[9],85.2%
same,"viability, T/C",[10],89%
same,"viability, T/C",[11],83.9%
same,"viability, T/C",[12],48.1%
same,"viability, T/C","second compound 0.03 µM, first compound 0.00316 µM",72.8%
same,"viability, T/C","second compound 0.03 µM, first compound 0.01 µM",86.5%
same,"viability, T/C",[13],101%
same,"viability, T/C",[14],74.1%
same,"viability, T/C",[15],84.1%
same,"viability, T/C",[16],44.3%
same,"viability, T/C","second compound 0.0949 µM, first compound 0.00316 µM",88%
same,"viability, T/C","second compound 0.0949 µM, first compound 0.01 µM",83.3%
same,"viability, T/C",[17],99.1%
same,"viability, T/C",[18],82.5%
same,"viability, T/C",[19],72.6%
same,"viability, T/C",[20],56%
same,"viability, T/C","second compound 0.3 µM, first compound 0.00316 µM",89.4%
same,"viability, T/C","second compound 0.3 µM, first compound 0.01 µM",78.5%
same,"viability, T/C",[21],84.2%
same,"viability, T/C",[22],82.9%
same,"viability, T/C",[23],62.9%
same,"viability, T/C",[24],42.8%

# From PubChem BioAssay AID2060897 (Molecular Pharmacology Branch, DTP, NCI, 2025)
